US9181243B2, “Solvate form M of trametinib dimethyl sulfoxide and methods of making and using thereof” (HANGZHOU PUSHAI PHARMACEUTICAL TECHNOLOGY CO., LTD., priority 2014, dated 2015)
Like-named read-outs stand apart in the source and are kept apart here. Blank lines part the entries; values can stand above or below the compound they belong to.

Assays:
[1] = tested on: advanced melanoma with BRAF V600E/K mutations; conditions: versus traditional chemotherapy drugs; cited from earlier work
[2] = volume distribution
Experimental: Typical particle size distribution (PSD) is measured using a laser diffraction particle size analyzer, namely Microtrac FLEX 53500. The most common approach for defining the distribution is to report the D10, D50, and D90 values based on a volume distribution. The D50, the median, has been defined above as the diameter where half of the population lies below this value. Similarly, 90 percent of the distribution lies below the D90, and 10 percent of the population lies below the D10.

[3] = Isothermal sorption (hygroscopicity); conditions: between 20-80% RH (relative humidity)
Experimental: Isothermal sorption was performed by TA Instruments Q5000 TGA. The control software is Thermal Advantage and the analysis software is Universal Analysis. Usually 1 to 10 mg of the specimen was placed in the platinum pan. The weight changes of the sample from 20% to 80% to 20% relative humidity were recorded by the TA software and the isothermal sorption plot was obtained by the analysis software.

[4] = Storage stability of crystalline form followed by XRPD; conditions: 44% RH, room temperature, 9 months

SMILES: CC(=O)Nc1cccc(-n2c(=O)n(C3CC3)c(=O)c3c(Nc4ccc(I)cc4F)n(C)c(=O)c(C)c32)c1 [trametinib, N-{3-[3-cyclopropyl-5-(2-fluoro-4-iodo-phenylamino)-3,4,6,7-tetrahydro-6,8-dimethyl-2,4,7-trioxo-pyrido[4,3-d]pyrimidin-1(2H)-yl]phenyl}acetamide]
therapeutic effect [1]: significantly better than traditional chemotherapy drugs

D10 ([2]; listed as Example 8): 18 μm | D50 ([2]; listed as Example 8): 40 μm | D90 ([2]; listed as Example 8): 85 μm | D10 ([2]; listed as Example 9): 9 μm | D50 ([2]; listed as Example 9): 24 μm | D90 ([2]; listed as Example 9): 72 μm | weight change in isothermal sorption [3]: about 1.07% | crystalline form change on storage (XRPD pattern) [4]: no signs of form change
SMILES: CC(=O)Nc1cccc(-n2c(=O)n(C3CC3)c(=O)c3c(Nc4ccc(I)cc4F)n(C)c(=O)c(C)c32)c1 [Form M]

D10 [2]: 3 μm | D50 [2]: 8 μm | D90 [2]: 36 μm | crystalline form change on storage (XRPD pattern) ([4]; listed as trametinib dimethyl sulfoxide solvate obtained by the conventional methods): its patterns changed | crystalline form change on storage (XRPD pattern) ([4]; listed as trametinib dimethyl sulfoxide solvates obtained by conventional methods): changed its XRD pattern
SMILES: CC(=O)Nc1cccc(-n2c(=O)n(C3CC3)c(=O)c3c(Nc4ccc(I)cc4F)n(C)c(=O)c(C)c32)c1.C[S+](C)[O-] [Reference Example 1, Trametinib dimethyl sulfoxide solvate, reference compound]
